{
  "source": "patent US20230257480A1",
  "about": "“ENHANCING BLOOD-BRAIN BARRIER DRUG TRANSPORT BY TARGETING ENDOGENOUS REGULATORS” (THE BOARD OF TRUSTEES OF THE LELAND STANFORD JUNIOR …, priority 2019, published 2023)",
  "tested_on": "cerebrovascular morphology",
  "assay": "Cerebrovascular morphology by CD31 staining after ALPL inhibitor treatment",
  "format": "in vivo",
  "settings": "aged (22 m.o.) mice, vs vehicle",
  "from_the_text": "FIGS. 14A-14D are graphs illustrating flow cytometry quantification of brain endothelial cell uptake of plasma from young mice (3 m.o.) (FIG. 14A), plasma from aged mice (22 m.o.) (FIG. 14B), human holo-transferrin (hu-Tf) from aged mice (FIG. 14C), or transferrin receptor antibody (TfR Ab) from aged mice (FIG. 14D) treated with vehicle (grey) or anti-ALPL (green) via IP injections twice daily for three days, as assessed by % of BECs that are tracer^+ and relative MFI of tracer^+ BECs (for plasma, n=4; for hu-Tf, n=6 vehicle, n=5 anti-ALPL; for TfR Ab, n=9, two-sided t-test, mean+/−s.e.m.). Tracer refers to plasma, hu-Tf, or TfR Ab. FIG. 14E includes representative images of hu-Tf^+ neurons detected in the cortex of mice treated with ALPL inhibitor. Scale bar=40 microns. […] FIG. 14H includes graphs illustrating flow cytometry quantification of brain endothelial cell and brain parenchymal cell uptake of 3 kDa dextran tracer, which probes for disruptions in paracellular permeability, in young mice (3 m.o.) and aged mice (22 m.o.) (n=6 vehicle, n=5 anti-ALPL, two-sided t-test, mean+/−s.e.m.).\nBrain tissue processing, immunohistochemistry, and immunofluorescence experiments were performed as described previously12,13. […] National Institutes of Health ImageJ software was used to quantify the percentage of vasculature (CD31 or AQP4) covered by CD13, AQP4, or ALPL, as described previously63. […]",
  "data": [
    {"smiles": "COc1ccc(OC)c(S(=O)(=O)Nc2cnc3ccccc3c2)c1", "note": "[ALPL inhibitor, 2,5-Dimethoxy-N-(quinolin-3-yl)benzenesulfonamide]", "values": [
      {"measurement": "vascular morphology", "result": "did not perturb"}
    ]}
  ]
}
